Assays:
[1] = biological target: T1, rat PMNL collagenolytic activity (PMNL collagenase) (Rattus norvegicus, UniProt O88766); assay: Rat PMNL collagenolytic activity in vitro (14C-collagen gel lysis); type: biochemical
T1 construct: An extract of PMNLs was prepared; from tissue; host or cells: extract of peritoneal exudate polymorphonuclear leucocytes of non-diabetic rats, elicited with glycogen
Protocol: To test the effect of physiologic levels of minocycline (the concentration in human serum, during a therapeutic regimen, is approximately 2 ug/ml; that in the gingival crevicular fluid is 4-5 times greater; Ciancio, et. al., 1980, J. Periodontol., 51, 531-534) on mammalian collagenolytic activity in vitro, peritonealexudate polymorphomuclear leucocytes (PMNLs) were collected from 15 mole (non-diabetic) rats 4 hours after I.P. injection of 0.15% glycogen. An extract of PMNLs was prepared, 250 μl aliquots of this extract were incubated with ^14 C-glycine labeled collagen fibrils for 14 hours at 35° C. (in the presence or absence of minocycline, or EDTA, or additional CaCl2), and collagenolytic activity was measured as described by Nicoll, et al., (Experientia., 37, 315-317).
The techniques used to measure the collagenolytic enzyme activity of gingival tissue in culture, and in polymorphonuclear leucocytes (PMNLs), are those described by Golub, et. al., (J. Dent. Res., 57, 520-525 (197)8) and Nicoll, et. al., (Experimentia, 37, 315-317, (1981)) with minor modifications.

[2] = test system: germfree diabetic rats; assay: Gingival collagenolytic activity, bone loss and skin collagen in germ-free streptozotocin-diabetic rats; type: in vivo, rat
Protocol: At this time (6 weeks after purchase), diabetes was induced in some of the animals, as described above in a), and the control and diabetic animals maintained under germfree conditions for an additional 6 weeks prior to sacrifice. […] Blood and tissues were then obtained to assess gingival collagenolytic enzyme activity and the loss of skin collagen and bone. The results are set forth below and illustrated in FIG. II. Alveolar bone loss was assessed in the right and left mandibles of both the conventional and germfree rats (control and diabetic) using a modification of a previously described technique (Stralfors, et.al, Archs. Oral. Biol., 12, 1213-1216 (1967); Heijl, et. al., J. […] Periodontal Res., 13, 316-325 (1978)) using an eye-piece micrometer in a dissecting microscope (20× magnification). Because uncontrolled diabetes in the rat results in the massive resorption of skin collagen associated with increased collagenase activity in this tissue, the collagen content of entire skins from the germfree and from the conventional control and diabetic rats, including those treated with minocycline was measured. The techniques used were those described by […] and Golub, (Streptozotocin: Fundamentals and Therapy (Ed. M. K. Agarwal, Elsevier/North-Holland Biomed Press, Chapter 12, pp 161-182, (1981)). The techniques used to measure the collagenolytic enzyme activity of gingival tissue in culture, and in polymorphonuclear leucocytes (PMNLs), are those described by Golub, et. al., (J. Dent. Res., 57, 520-525 (197)8) and Nicoll, et. al., (Experimentia, 37, 315-317, (1981)) with minor modifications.

[3] = test system: fetal rat bones (radii and ulnae) in organ culture; assay: PTH-induced bone resorption in organ culture (45calcium release); type: cell-based
Protocol: The technique used to assess bone resorption is based on monitoring the release of radioactive calcium, previously incorporated by embryonic bones in vivo, during organ culture. Pregnant Sprague-Dawley rats were injected subcutaneously with 200 μCi of ^45 calcium chloride on the 18th day of gestation. The following day, the animals were killed, the fetuses removed, and the radii and ulnae dissected under aseptic conditions. […] The bones were then randomly distributed and each bone, either a radius or ulna, was incubated in 0.5 ml of culture media alone or in a media containing parathyroid hormone (PTH: human synthetic 1-34 peptide, Beckman Instruments, Inc., Palo Alto, California) added in a final concentration of 1.0 μg/ml; the experimental bones were incubated in the PTH containing medium to which was added different concentrations (0.2-300 μg/ml) of the antibiotics to be tested. The bones were cultured for 5 days, with the media being changed after day 2, and the incubation terminated. The bones were decalcified in 0.2 ml of 5% trichloroacetic acid and the ^45 calcium content of the residual bones and of the culture media was measured as described previously. (Werner and Raisz, Endocrinology, 90, 752 (1972 ) and Gomes, et. al., Calc. Tiss. Res., 19, 285 (1976)). The ^45 calcium released into the media was calculated as a percentage of the total radioactive calcium measured in the bones.

[4] = Table 3, PTH + 2 μg/ml minocycline + 100 μg/ml Pen.-Strep.
[5] = Table 3, PTH + 2 μg/ml minocycline + 300 μg/ml Pen.-Strep.
[6] = Table 3, PTH + 20 μg/ml minocycline + 100 μg/ml Pen.-Strep.

T1 sequence (O88766 102-466): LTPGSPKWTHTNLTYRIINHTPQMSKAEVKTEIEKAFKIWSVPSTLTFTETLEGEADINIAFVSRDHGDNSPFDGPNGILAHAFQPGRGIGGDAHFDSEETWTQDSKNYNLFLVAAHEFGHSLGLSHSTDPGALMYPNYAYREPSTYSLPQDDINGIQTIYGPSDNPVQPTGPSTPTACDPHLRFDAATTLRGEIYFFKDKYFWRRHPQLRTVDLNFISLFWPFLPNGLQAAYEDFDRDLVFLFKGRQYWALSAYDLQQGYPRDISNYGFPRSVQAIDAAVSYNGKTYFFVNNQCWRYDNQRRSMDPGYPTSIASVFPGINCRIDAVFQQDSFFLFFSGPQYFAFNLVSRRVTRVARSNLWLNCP

CN(C)c1ccc(O)c2c1C[C@H]1C[C@H]3[C@H](N(C)C)C(O)=C(C(N)=O)C(=O)[C@@]3(O)C(O)=C1C2=O [minocycline, Minocycline]
effect on PMNL collagenolytic (collagenase) activity, in words ([1]; Table 1): almost complete inhibition | Collagenolytic Activity: % ^14 C-collagen gel lysed ([1]; Table 1, PMNL extract + 5 μg/ml, control extract 85.5): 12.4% | Collagenolytic Activity: % ^14 C-collagen gel lysed ([1]; Table 1, PMNL extract + 20 μg/ml + CaCl2 10 mM): 38.5% | Collagenolytic Activity: % ^14 C-collagen gel lysed ([1]; Table 1, PMNL extract + 20 μg/ml + CaCl2 50 mM): 82.1% | Collagenolytic Activity: % ^14 C-collagen gel lysed ([1]; Table 1, PMNL extract + 20 μg/ml, control extract 85.5): 8.3% | Collagenolytic Activity: % ^14 C-collagen gel lyzed ([1]; Table 2, PMNL extract (30 × 10^6 PMNLs per ml) + 20 ug/ml, control extract 39.0): 4.0% | increase of skin collagen levels ([2]; germ-free diabetic rats, 20 mg/day for the last 4 weeks, versus untreated diabetics): 45% | bone levels ([2]; germfree control, diabetic and minocycline-treated diabetic rats): no differences | reduction of gingival collagenolytic activity (tissue culture) ([2]; germfree diabetic rats, 20 mg/day by gavage for the last 4 weeks): 70% | ^45 Calcium in Fetal Bone Released into Media (%) after 2 days incubation ([3]; Table 3, PTH + 0.2 μg/ml): 42.6 ± 0.6% | ^45 Calcium in fetal bone Released into media (%) after 5 days incubation ([3]; Table 3, PTH + 0.2 μg/ml): 75.6 ± 1.0% | ^45 Calcium in Fetal Bone Released into Media (%) after 2 days incubation ([3]; Table 3, PTH + 2 μg/ml): 44.2 ± 2.1% | ^45 Calcium in fetal bone Released into media (%) after 5 days incubation ([3]; Table 3, PTH + 2 μg/ml): 74.7 ± 3.1% | ^45 Calcium in Fetal Bone Released into Media (%) after 2 days incubation [3, 4]: 42.9 ± 1.9% | ^45 Calcium in fetal bone Released into media (%) after 5 days incubation [3, 4]: 70.2 ± 3.7% | ^45 Calcium in Fetal Bone Released into Media (%) after 2 days incubation [3, 5]: 45.7 ± 2.5% | ^45 Calcium in fetal bone Released into media (%) after 5 days incubation [3, 5]: 71.8 ± 3.5% | ^45 Calcium in Fetal Bone Released into Media (%) after 2 days incubation ([3]; Table 3, PTH + 20 μg/ml): 22.5 ± 1.6% | ^45 Calcium in fetal bone Released into media (%) after 5 days incubation ([3]; Table 3, PTH + 20 μg/ml): 29.2 ± 1.8% | ^45 Calcium in Fetal Bone Released into Media (%) after 2 days incubation [3, 6]: 21.5 ± 1.5% | ^45 Calcium in fetal bone Released into media (%) after 5 days incubation [3, 6]: 31.9 ± 2.1% | ^45 Calcium in fetal bone Released into media (%) after 5 days incubation ([3]; Table 3, PTH + 20 μg/ml minocycline + 300 μg/ml Pen.-Strep.): 33.5 ± 1.3% | ^45 Calcium in Fetal Bone Released into Media (%) after 2 days incubation ([3]; Table 3, PTH + 60 μg/ml): 19.4 ± 0.9% | ^45 Calcium in fetal bone Released into media (%) after 5 days incubation ([3]; Table 3, PTH + 60 μg/ml): 24.5 ± 1.1% | ^45 Calcium in Fetal Bone Released into Media (%) after 2 days incubation ([3]; Table 3, PTH + 200 μg/ml): 17.6 ± 0.4% | ^45 Calcium in fetal bone Released into media (%) after 5 days incubation ([3]; Table 3, PTH + 200 μg/ml): 22.3 ± 0.5% | ^45 Calcium in Fetal Bone Released into Media (%) after 2 days incubation ([3]; Table 4, first column, PTH + 0.2 μg/ml): 54.5 ± 4.1% | ^45 Calcium in Fetal Bone Released into Media (%) after 2 days incubation ([3]; Table 4, first column, PTH + 2.0 μg/ml): 56.5 ± 2.6% | ^45 Calcium in Fetal Bone Released into Media (%) after 2 days incubation ([3]; Table 4, first column, PTH + 20 μg/ml): 40.7 ± 0.8% | ^45 Calcium in Fetal Bone Released into Media (%) after 2 days incubation ([3]; Table 4, first column, PTH + 200 μg/ml): 16.4 ± 1.1% | ^45 Calcium in Fetal Bone Released into Media (%) after 2 days incubation ([3]; Table 4, second column, PTH + 0.2 μg/ml): 95.1 ± 1.8% | ^45 Calcium in Fetal Bone Released into Media (%) after 2 days incubation ([3]; Table 4, second column, PTH + 2.0 μg/ml): 93.3 ± 2.6% | ^45 Calcium in Fetal Bone Released into Media (%) after 2 days incubation ([3]; Table 4, second column, PTH + 20 μg/ml): 50.1 ± 0.8% | ^45 Calcium in Fetal Bone Released into Media (%) after 2 days incubation ([3]; Table 4, second column, PTH + 200 μg/ml): 20.4 ± 1.5% | effect on PTH-enhanced bone resorption, in words ([3]; concentrations 0.2-300 μg/ml): inhibit ^45 calcium release in a dose responsive manner
